# Measurements published in patent publication US12569484B2, “Use of phosphodiesterase 5 inhibitor in preparation of medicament for resisting fibrotic diseases” (SHENZHEN HANHUI PHARMACEUTICAL TECHNOLOGY CO., LTD., priority 2019, dated 2026).
# Tested on: idiopathic pulmonary fibrosis model rats
# Test: Bleomycin-induced idiopathic pulmonary fibrosis model
# Assay type: in vivo, male SD rats
# Conditions: IPF rats; for degree of pulmonary fibrosis in the left lung (Ashcroft score): oral once a day 14 days
# Procedure: 48 male SD rats were randomly divided into 6 groups according to their body weights, with 8 rats in each group: a sham operation group (Sham), a model group, a nintedanib-50 mg/kg group (BIBF-50 mg/kg), a tadalafil-5 mg/kg group, a tadalafil-20 mg/kg group, and a sildenafil-20 mg/kg group. All the operations involved in this experiment were implemented under the guiding principle of KCI animal experiment operation SOP. After the animals were purchased, they were fed adaptively for 3-7 days before modeling. After weighing, the animals were anesthetized with isoflurane inhalation. After it was confirmed that the animals were anesthetized, the neck was sterilized, the skin of the neck was cut open, a main trachea was exposed by blunt dissection of muscle, a small incision was made between tracheal rings, a PE-20 tube was inserted into a left main bronchus, bleomycin (dosage: 3 mg/kg, volume: 1.0 ml/kg) was directly injected, and the trachea and skin were sutured. After the operation was completed, the animals were put in an electric blanket at 37° C. to keep them warm until they fully woke up, and the animals were returned into feeding cages for normal feeding after it was confirmed that they could eat and drink freely. • (i) sham operation group and model group: the mice were given normal saline by intragastric administration according to their body weights at a dosage of 1 ml·100 g^-1·d^-1; • (ii) nintedanib-50 mg/kg group (BIBF-50 mg/kg): BIBF was formulated into a 10 mg/ml solution with 0.5% sodium carboxymethyl cellulose, and administrated intragastrically at a dosage of 50 mg·kg^-1·d^-1; • (iii) tadalafil-5 mg/kg group: tadalafil was diluted into a 1 mg/ml solution with 0.5% sodium carboxymethylcellulose, and administrated intragastrically at a dosage of 5 mg·kg^-1·d^-1; • (iv) tadalafil-20 mg/kg group: tadalafil was diluted into a 4 mg/ml solution with 0.5% sodium carboxymethylcellulose, and administrated intragastrically at a dosage of 20 mg·kg^-1·d^-1; • (v) sildenafil-20 mg/kg group: sildenafil was diluted into a 4 mg/ml solution with 0.5% sodium carboxymethylcellulose, and administrated intragastrically at a dosage of 20 mg·kg^-1·d^-1, and • the rats in each group were administrated intragastrically once a day for 14 days in total on the day of modeling. • (1) according to an interspecific dosage conversion method currently adopted by FDA, USA, the conversion coefficient of rats and human was 0.162. Therefore, according to the dosage and time of intragastric administration of tadalafil in the mice in this example, it was inferred that the oral dosage of human was 0.81-3.24 mg·kg^-1·d^-1, and the administration time was 14 days; and according to the dosage and time of intragastric administration of sildenafil in the mice in this example, it was inferred that the oral dosage of human was 3.24 mg·kg^-1·d^-1, and the administration time was 14 days. • (2) according to dosage conversion among different routes of administration in pharmacological experimental methodology, a dosage ratio of intramuscular injection and intraperitoneal injection to oral administration was about 0.3-0.4, so it was inferred that the injection dosage of tadalafil in human was 0.243-1.296 ml·kg^-1·d^-1, and the administration time was 14 days (medicament concentration: 1 mg/ml); and the injection dosage of sildenafil in human was 0.972-1.296 ml·kg^-1·d^-1, and the administration time was 14 days (medicament concentration: 1 mg/ml). 2.4 Experimental Indexes and Determining Methods 2.4.1 Weight and Volume of Left Lung of IPF Rats After 14 days of continuous administration, all animals were euthanized by intraperitoneal injection of a pentobarbital sodium anesthetic (100 mg/kg) to the animals in each group according to a KCI standard operating procedure for animal euthanasia. All animals were perfused with low-temperature PBS systematically, and then perfused systematically with formalin for fixation. […]
# [1] = 14 days intragastric, BIBF 50 mg/kg, tadalafil 5 and 20 mg/kg, sildenafil 20 mg/kg
# [2] = BIBF 50 mg/kg, tadalafil 5 and 20 mg/kg, sildenafil 20 mg/kg, vs model group, p<0.05
Compound,alveolar tissue structure in the pulmonary fibrosis lesion of the left lung (HE staining) [1],alveolar tissue structure in the pulmonary fibrosis lesion of the left lung (Masson Trichrom staining) [1],"pulmonary fibrosis lesion and lesion range in the left lung (H&E and Masson Trichrom staining) (14 days intragastric, BIBF 50 mg/kg, tadalafil 5 and 20 mg/kg, sildenafil 20 mg/kg, vs model group)","scores of injury degrees of bronchioles and pulmonary arterioles in the center and margin of the pulmonary fibrosis lesion (14 days intragastric, BIBF 50 mg/kg, tadalafil 5 and 20 mg/kg, sildenafil 20 mg/kg, vs model group, p<0.05)","percentage of the pulmonary fibrosis degree (Ashcroft score of 3 as a boundary) (14 days intragastric, vs model group, p<0.05)",degree of pulmonary fibrosis in the left lung (Ashcroft score) [2]
"COC(=O)c1ccc2c(c1)NC(=O)/C2=C(\Nc1ccc(N(C)C(=O)CN2CCN(C)CC2)cc1)c1ccccc1 [BIBF, nintedanib]",some alveolar structures in the fibrosis lesion were still damaged,some alveolar structures disappeared in the fibrosis lesion,no significant difference,significantly decreased,significantly decreased,significantly improved
CCCc1nn(C)c2c(=O)[nH]c(-c3cc(S(=O)(=O)N4CCN(C)CC4)ccc3OCC)nc12 [sildenafil],the alveolar structure in the fibrosis lesion was preserved,most of the alveolar structures in the fibrosis lesion were preserved,–,–,–,significantly inhibit
